Assay results: patent publication US8119624B2, “Fused phenyl amido heterocyclic compounds” (Pfizer Inc., priority 2006, dated 2012)
Read-outs that look alike come from different tables or passages of the source.

Biological target: T1, Full-length glucokinase (beta cell isoform) (Homo sapiens, UniProt P35557)
T1 construct: Full-length glucokinase (beta cell isoform) was His-tagged at N-terminus; His tag (N); made in house
T1 sequence (P35557 1-465): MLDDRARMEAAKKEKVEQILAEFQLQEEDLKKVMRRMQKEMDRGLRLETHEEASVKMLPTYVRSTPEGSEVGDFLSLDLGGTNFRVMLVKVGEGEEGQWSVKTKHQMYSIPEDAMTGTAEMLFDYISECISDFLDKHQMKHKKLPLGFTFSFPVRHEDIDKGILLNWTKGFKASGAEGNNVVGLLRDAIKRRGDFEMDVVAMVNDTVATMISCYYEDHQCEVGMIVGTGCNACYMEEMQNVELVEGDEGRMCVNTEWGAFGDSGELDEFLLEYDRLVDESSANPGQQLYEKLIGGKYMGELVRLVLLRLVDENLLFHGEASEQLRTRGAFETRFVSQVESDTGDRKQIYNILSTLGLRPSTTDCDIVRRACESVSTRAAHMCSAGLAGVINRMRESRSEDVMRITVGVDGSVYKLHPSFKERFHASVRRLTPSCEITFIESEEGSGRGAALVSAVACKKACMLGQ
Assay: Glucokinase biochemical assay (PK/LDH-coupled, NADH depletion at 340 nm): % activation, EC50, % max activation
Settings: for activation at 10 µM: read-out: % Activation at 10 uM; for EC50: GK activation; for Emax: read-out: % Max Activation
Procedure, shortened: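 N-terminally His-tagged full-length human beta-cell glucokinase, room temperature, 5 mM glucose, 1 mM ATP, PK/LDH-coupled with 0.7 mM NADH, 1% DMSO final. Initial velocity from the 200–900 s slope of A340 decline. % activation = (Va/Vo−1)×100, measured across compound concentrations.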

[1] = 10 uM compound, 5 mM glucose, % Activation=(Va/Vo−1)×100
[2] = 5 mM glucose, fitted maximum activation

Row | activation at 10 µM [1] | EC50 (5 mM glucose, read-out: EC50) | Emax [2] | Structure (SMILES) | further results
1 | 51.4% | > 10 µM | – | Cn1ncc(NC(=O)c2cc(Oc3ccc(S(C)(=O)=O)cc3)cc3c2CC(C)(C)O3)n1 [Example 198, 6-(4-Methanesulfonyl-phenoxy)-2,2-dimethyl-2,3-dihydro-benzofuran-4-carboxylic acid (2-methyl-2H-[1,2,3]triazol-4-yl)-amide] | –
2 | 138% | 1.4 µM | 141% | Cn1ccc(NC(=O)c2cc(Oc3ccc(C(=O)N4CCOCC4)cc3F)c3c(c2)OC(C)(C)C3)n1 [Example 41, 4-[2-Fluoro-4-(morpholine-4-carbonyl)-phenoxy]-2,2-dimethyl-2,3-dihydro-benzofuran-6-carboxylic acid(1-methyl-1H-pyrazol-3-yl)-amide] | –
3 | – | 0.38 µM | – | COCC1Cc2c(Oc3ccc(C(=O)N4CCC4)cc3)cc(C(=O)Nc3ccn(C)n3)cc2O1 (single isomer, unassigned; (-)) [Example 209, (−)-4-[4-(Azetidine-1-carbonyl)-phenoxy]-2-methoxymethyl-2,3-dihydro-benzofuran-6-carboxylic acid (1-methyl-1H-pyrazol-3-yl)-amide] | % Activation at 10 uM [1]: 87%; % Max Activation [2]: 96%
4 | 140% | 0.063 µM | 144% | COCC1(C)Cc2c(Oc3ccc(C(=O)N4CCC4)c(F)c3)cc(C(=O)Nc3ccn(C)n3)cc2O1 (centres unmarked) [Example 242, 4-[4-(Azetidine-1-carbonyl)-3-fluoro-phenoxy]-2-methoxymethyl-2-methyl-2,3-dihydro-benzofuran-6-carboxylic acid (1-methyl-1H-pyrazol-3-yl)-amide] | –
5 | 248% | 0.104 µM | 227% | Cn1ccc(NC(=O)c2cc(Oc3ccc(-c4ncon4)c(F)c3)c3c(c2)OC(C)(C)C3)n1 [Example 185, 4-(3-Fluoro-4-[1,2,4]oxadiazol-3-yl-phenoxy)-2,2-dimethyl-2,3-dihydro-benzofuran-6-carboxylic acid (1-methyl-1H-pyrazol-3-yl)-amide] | –
6 | 62% | > 10 µM | – | CC(=O)N1CC(Oc2cc(C(=O)Nc3ccn(C)n3)cc3c2CC(C)(C)O3)C1 [Example 196, 4-(1-Acetyl-azetidin-3-yloxy)-2,2-dimethyl-2,3-dihydro-benzofuran-6-carboxylic acid (1-methyl-1H-pyrazol-3-yl)-amide] | –
7 | 47.2% | 0.0727 µM | 46.5% | CN(C)C(=O)c1ccc(Oc2cc(C(=O)Nc3ccc(CO)cn3)cc3c2CC(C)(C)O3)cc1F [Example 145, 4-(4-Dimethylcarbamoyl-3-fluoro-phenoxy)-2,2-dimethyl-2,3-dihydro-benzofuran-6-carboxylic acid (5-hydroxymethyl-pyridin-2-yl)-amide] | –
8 | 25.1% | – | – | CN(C)C(=O)c1ccc(Oc2cc(C(=O)Nc3ccc(C(N)=O)cn3)cc3c2CC(C)(C)O3)cc1F [Example 146, 6-{[4-(4-Dimethylcarbamoyl-3-fluoro-phenoxy)-2,2-dimethyl-2,3-dihydro-benzofuran-6-carbonyl]-amino}-nicotinamide] | –
9 | 55.3% | 0.075 µM | 88% | Cn1ccc(NC(=O)c2cc(Oc3ccc(C(=O)N4CC[C@@H](F)C4)c(F)c3)c3c(c2)OC(C)(C)C3)n1 [Example 58, 4-[3-Fluoro-4-((R)-3-fluoro-pyrrolidine-1-carbonyl)-phenoxy]-2,2-dimethyl-2,3-dihydro-benzofuran-6-carboxylic acid(1-methyl-1H-pyrazol-3-yl)-amide] | –

Further lines, the compound ahead of its results:

Row | Structure (SMILES) | activation at 10 µM [1] | EC50 (5 mM glucose, read-out: EC50) | Emax [2] | further results
10 | Cc1ccc(NC(=O)c2cc(Oc3ccc(S(C)(=O)=O)cc3)c3c(c2)OC(C)C3)nc1 (centres unmarked) [Example 10, 4-(4-Methanesulfonyl-phenoxy)-2-methyl-2,3-dihydro-benzofuran-6-carboxylic acid(5-methyl-pyridin-2-yl)-amide] | 98.7% | 1.1 µM | 122% | –
11 | Cc1ccc(NC(=O)c2cc(OC(C)C)cc3oc(Br)cc23)nc1 [Example 345, 2-Bromo-6-isopropoxy-N-(5-methylpyridin-2-yl)benzofuran-4-carboxamide] | 75.6% | 4 µM | 116% | –
12 | COc1cc(C(=O)Nc2ccc(C)cn2)c2nc(C)[nH]c2c1 [Example 373, 6-Methoxy-2-methyl-1H-benzoimidazole-4-carboxylic acid(5-methyl-pyridin-2-yl)-amide] | -1.1% | – | – | –
13 | Cc1ccc(NC(=O)c2cc(Oc3ccc(S(C)(=O)=O)cc3)c3cc(C(=O)N4CCC4)oc3c2)nc1 [Example 290, 2-(Azetidin-1-ylcarbonyl)-N-(5-methylpyridin-2-yl)-4-[4-(methylsulfonyl)-phenoxy]-1-benzofuran-6-carboxamide] | 12.8% | – | – | –
14 | Cc1ccc(NC(=O)c2cc(Oc3ccc(C(=O)N4CCC4)c(F)c3)c3c(c2)OC(C)(CO)C3)nc1 (centres unmarked) [Example 240, 4-[4-(Azetidine-1-carbonyl)-3-fluoro-phenoxy]-2-hydroxymethyl-2-methyl-2,3-dihydro-benzofuran-6-carboxylic acid (5-methyl-pyridin-2-yl)-amide] | – | – | – | EC50 (EC50 (uM), 5 mM glucose): 0.021 µM; activation at 10 µM: 83%; Emax: 94%
15 | CN(C)C(=O)c1cc2c(Oc3ccc(S(C)(=O)=O)cc3)cc(C(=O)Nc3cnn(C)n3)cc2o1 [Example 288, N2,N2-Dimethyl-4-[4-(methylsulfonyl)phenoxy]-N6-(2-methyl-2H-1,2,3-triazol-4-yl)-1-benzofuran-2,6-dicarboxamide] | 161% | 1.7 µM | 188% | –
16 | Cc1ccc(NC(=O)c2cc(Oc3ccc(S(C)(=O)=O)cc3)c3cc(C)oc3c2)nc1 [Example 252, 2-Methyl-N-(5-methylpyridin-2-yl)-4-(4-(methylsulfonyl)-phenoxy)-benzofuran-6-carboxamide] | 108% | 0.778 µM | 107% | –
17 | Cc1ccc(NC(=O)c2cc(Oc3ccc(S(=O)(=O)N(C)C)c(F)c3)c3cc(C)oc3c2)nc1 [Example 304, 4-{4-[(Dimethylamino)sulfonyl]-3-fluorophenoxy}-2-methyl-N-(5-methyl-pyridin-2-yl)-1-benzofuran-6-carboxamide] | 94.6% | 0.24 µM | 89% | –
18 | COCc1cc2c(Oc3ccc(S(C)(=O)=O)cc3)cc(C(=O)Nc3cnc(N(C)C)cn3)cc2o1 [Example 311, N-[5-(Dimethylamino)pyrazin-2-yl]-2-(methoxymethyl)-4-[4-(methylsulfonyl)-phenoxy]-1-benzofuran-6-carboxamide] | 106% | 0.38 µM | 114% | –
19 | COCCN1Cc2c(Oc3ccc(S(C)(=O)=O)cc3)cc(C(=O)Nc3ccn(C)n3)cc2C1=O [Example 388, 2-(2-Methoxyethyl)-N-(1-methyl-1H-pyrazol-3-yl)-7-(4-(methylsulfonyl)-phenoxy)-3-oxoisoindoline-5-carboxamide] | – | – | – | activation at 10 µM (compound at 10 uM, 5 mM glucose, 1 mM ATP, room temperature): 39.7%
20 | COc1ccnc(NC(=O)c2cc(Oc3ccc(S(=O)(=O)N(C)C)c(F)c3)c3cc(C)oc3c2)c1 [Example 293, 4-{4-[(Dimethylamino)sulfonyl]-3-fluorophenoxy}-N-(4-methoxypyridin-2-yl)-2-methyl-1-benzofuran-6-carboxamide] | 46.9% | 0.59 µM | 50% | –
